The CheMixHub viscosity set

Assay: xn = mol fraction of the nth substance listed

CCCCCCCCCCCC(=O)OC + CCCCCCCCCCCC
viscosity [mPa·s], 100 kPa
Conditions	x2 = 0.0991	x2 = 0.2004	x2 = 0.3006	x2 = 0.3991	x2 = 0.5003	x2 = 0.6	x2 = 0.6997	x2 = 0.8005	x2 = 0.8995
293.15 K	2.863	2.631	2.435	2.242	2.09	1.931	1.789	1.671	1.564
298.15 K	2.554	2.356	2.185	2.009	1.883	1.749	1.624	1.514	1.425
303.15 K	2.296	2.126	1.975	1.83	1.71	1.595	1.485	1.391	1.308
308.15 K	2.081	1.93	1.797	1.671	1.563	1.461	1.363	1.28	1.205
313.15 K	1.896	1.763	1.644	1.526	1.436	1.344	1.257	1.183	1.116
318.15 K	1.735	1.616	1.511	1.402	1.318	1.243	1.164	1.098	1.037
323.15 K	1.594	1.489	1.395	1.299	1.223	1.153	1.082	1.022	0.967

CCCCCCCCCCCCCCCCCCCl + CCCCCCCCCCCC
298 K, 101.3 kPa
Conditions	viscosity [mPa·s]
x2 = 0.1097	6.289
x2 = 0.2096	5.429
x2 = 0.3134	4.684
x2 = 0.4067	4
x2 = 0.5044	3.481
x2 = 0.6047	2.887
x2 = 0.6853	2.488
x2 = 0.805	2.012
x2 = 0.8971	1.662

CCOc1ccccc1 + CCCCCCCCCCO
viscosity [mPa·s], 101.3 kPa
Conditions	x1 = 0.0999	x1 = 0.2011	x1 = 0.2996	x1 = 0.4003	x1 = 0.5011	x1 = 0.6025	x1 = 0.6998	x1 = 0.8007	x1 = 0.9012
293.15 K	11.33	8.76	6.789	5.22	4.017	3.116	2.486	2.001	1.637
298.15 K	9.33	7.335	5.786	4.5	3.502	2.729	2.188	1.79	1.501
308.15 K	6.907	5.541	4.402	3.45	2.705	2.149	1.724	1.397	1.144
318.15 K	4.863	3.962	3.226	2.613	2.125	1.726	1.414	1.147	0.9405

CCOc1ccccc1 + CCCCCCCCCO
viscosity [mPa·s], 101.3 kPa
Conditions	x1 = 0.1012	x1 = 0.2001	x1 = 0.3006	x1 = 0.4009	x1 = 0.5013	x1 = 0.6023	x1 = 0.7018	x1 = 0.8005	x1 = 0.8997
293.15 K	8.86	6.725	5.095	3.858	2.948	2.293	1.853	1.578	1.424
298.15 K	7.33	5.611	4.298	3.299	2.57	2.039	1.692	1.488	1.361
308.15 K	5.241	4.17	3.295	2.614	2.089	1.697	1.394	1.17	1.023
318.15 K	3.906	3.16	2.525	2.033	1.654	1.371	1.152	0.9714	0.8556

CCOc1ccccc1 + CCCCCCCCO
viscosity [mPa·s], 101.3 kPa
Conditions	x1 = 0.1001	x1 = 0.1976	x1 = 0.2997	x1 = 0.4014	x1 = 0.4996	x1 = 0.6027	x1 = 0.7022	x1 = 0.8015	x1 = 0.9016
293.15 K	6.96	5.353	4.171	3.317	2.691	2.194	1.86	1.63	1.491
298.15 K	5.929	4.669	3.644	2.894	2.361	1.947	1.68	1.502	1.36
308.15 K	4.308	3.441	2.698	2.152	1.742	1.436	1.234	1.111	1.042
318.15 K	3.31	2.701	2.153	1.7	1.386	1.143	0.9913	0.9148	0.8795

CCCCCCCCn1cc[n+](C)c1.[Cl-] + CCCCCCCC[n+]1ccn(C)c1.F[B-](F)(F)F
101 kPa
Conditions	viscosity [mPa·s]
303.15 K, x1 = 0.2	529.1
308.15 K, x1 = 0.2	381.3
308.15 K, x1 = 0.4	756.6
313.15 K, x1 = 0.4	534.9
318.15 K, x1 = 0.4	386.7
318.15 K, x1 = 0.6	735.5
323.15 K, x1 = 0.6	523

CCOc1ccccc1 + CCCCCCCO
viscosity [mPa·s], 101.3 kPa
Conditions	x1 = 0.0989	x1 = 0.1998	x1 = 0.2988	x1 = 0.4017	x1 = 0.5011	x1 = 0.6101	x1 = 0.7004	x1 = 0.8009	x1 = 0.9031
293.15 K	5.488	4.237	3.317	2.62	2.147	1.814	1.606	1.47	1.388
298.15 K	4.761	3.758	2.978	2.379	1.916	1.583	1.412	1.295	1.252
308.15 K	3.737	2.957	2.382	1.91	1.58	1.318	1.171	1.066	1.001
318.15 K	2.785	2.261	1.846	1.517	1.28	1.083	0.9726	0.8947	0.8422

COC(=O)CC(C)=O + CCCCCCCO
viscosity [mPa·s], 101.33 kPa
Conditions	x1 = 0.1016	x1 = 0.2071	x1 = 0.3081	x1 = 0.4096	x1 = 0.5099	x1 = 0.6072	x1 = 0.7071	x1 = 0.8059	x1 = 0.9033
298.15 K	4.066	3.167	2.651	2.278	2.012	1.842	1.663	1.546	1.512
303.15 K	3.465	2.734	2.298	1.981	1.754	1.624	1.485	1.393	1.366
308.15 K	2.97	2.357	1.998	1.733	1.545	1.452	1.337	1.264	1.245
